Results taken from the NIST ThermoML archive (doi:10.1016/j.tca.2011.08.025).

Assay: molar heat capacity at constant pressure
Conditions: 101.33 kPa, Crystal, Relaxation calorimetry

[Al] [aluminum]
Conditions	molar heat capacity at constant pressure [J/K/mol]
5.284 K	0.011
9.67 K	0.035
14.08 K	0.085
18.45 K	0.181
22.82 K	0.341
27.12 K	0.602
31.49 K	0.992
35.83 K	1.526
40.18 K	2.149
44.52 K	2.841
48.85 K	3.64
53.19 K	4.446
57.52 K	5.317
61.85 K	6.177
66.18 K	7.052
70.51 K	7.917
74.83 K	8.774
79.16 K	9.582
83.49 K	10.38
87.82 K	11.08
92.15 K	11.77
96.47 K	12.46
100.7 K	13.15
105.1 K	13.74
109.4 K	14.29
113.7 K	14.88
118 K	15.37
122.4 K	15.87
126.7 K	16.34
131 K	16.78
135.3 K	17.22
139.7 K	17.63
144 K	17.97
148.3 K	18.36
152.6 K	18.61
156.9 K	18.93
161.2 K	19.21
165.6 K	19.46
169.9 K	19.74
174.2 K	20.03
178.5 K	20.29
182.8 K	20.49
187.1 K	20.74
191.4 K	20.96
195.7 K	21.15
200.1 K	21.31
204.4 K	21.47
208.7 K	21.66
213 K	21.83
217.3 K	22.01
221.7 K	22.2
226 K	22.34
230.3 K	22.46
234.6 K	22.58
238.9 K	22.73
243.3 K	22.82
247.6 K	22.99
251.9 K	23.05
256.2 K	23.21
260.5 K	23.34
264.9 K	23.48
269.2 K	23.61
273.5 K	23.7
277.8 K	23.73
282.1 K	23.82
286.4 K	23.93
290.8 K	24.02
295.1 K	24.12
299.4 K	24.14
303.8 K	24.21
